Source: PMC8300687, “A Fine-Tuned Lipophilicity/Hydrophilicity Ratio Governs Antibacterial Potency and Selectivity of Bifurcated Halogen Bond-Forming NBTIs” (Antibiotics, 2021)
≈ marks a conversion by molar mass, not a printed value. Read-outs that look alike come from different tables or passages of the source.

Assays:
E. coli Topo IV = target: T1, E. coli Topo IV (Escherichia coli, UniProt P0AFI2); test: Topo IV Relaxation High Throughput Plate assay, E. coli; assay type: biochemical
T1 construct: purchased Inspiralis (Norwich, UK)
Protocol: (§1) A Topo IV Relaxation High Throughput Plate assay kit, purchased from Inspiralis (Norwich. UK) was used to determine IC50 values of compounds on S. aureus and E. coli. […] Biotinylated oligonucleotide in wash buffer was immobilized onto the wells, and the excess oligonucleotide was washed off with wash buffer and ultrapure water. 1.5 U of S. aureus or E. coli […] enzyme was incubated together with 0.75 μg of supercoiled pNO1 plasmid as a substrate in the presence of 3 μL inhibitor solution in 10% DMSO and 0.008% Tween 20 at 37 °C for 30 min in a final reaction volume of 30 μL in dilution buffer (50 mM Tris-HCl (pH 7.5), 1 mM DTT, 1 mM EDTA, 40% (w/v) glycerol for S. aureus and 40 mM HEPES, KOH (pH 7.6), 100 mM potassium glutamate, 1 mM DTT, 1 mM EDTA, and 40% (v/v) glycerol for E. coli). The reactions were stopped by adding the TF buffer (50 mM NaOAc (pH 4.7), 50 mM NaCl, and 50 mM MgCl2) to allow the triplex formation (biotin-oligonucleotide-plasmid) for additional 30 min. Afterward, the unbound plasmid was washed off using TF buffer, and the solution of Promega Diamond dye in T10 buffer (10 mM Tris-HCl (pH 8.0), 1 mM EDTA) was added. […] IC50 value represents the mean of two to four independent measurements.

Human topoisomerase IIα = target: T2, Human topoisomerase IIα (Homo sapiens, UniProt P11388); test: Human topoisomerase II Alpha Relaxation High Throughput Plate assay; assay type: biochemical; conditions: 0.5 h; residual activity of the enzyme at compound concentration 10 μM, mean ± SD; read-out: Human Topo II (% RA)
T2 construct: purchased Inspiralis (Norwich, UK)
Protocol: A Human topoisomerase II Alpha Relaxation High Throughput Plate assay kit, purchased from Inspiralis (Norwich, UK) was used to evaluate the selectivity of compounds for the bacterial enzymes over the homologous human topoisomerase II. […] Biotinylated oligonucleotide in wash buffer was immobilized onto the wells and the excess oligonucleotide was washed off with wash buffer. […] The reactions were stopped by adding the TF buffer (50 mM NaOAc (pH 4.7), 50 mM NaCl, and 50 mM MgCl2) to allow the triplex formation (biotin-oligonucleotide-plasmid) for additional 30 min. Afterward, the unbound plasmid was washed off using TF buffer, and the solution of Promega Diamond dye in T10 buffer (10 mM Tris-HCl (pH 8.0), 1 mM EDTA) was added. […] Screening was performed at inhibitor concentrations of 10 μM. Raw data were converted to mean ± SD percentage of residual activity of the enzyme obtained by two independent measurements.

S. aureus (ATCC 29213) = test: MIC broth microdilution, S. aureus ATCC 29213; assay type: cell-based
Protocol: (§2) Antimicrobial testing was carried out by the broth microdilution method in 96-well plate format following the Clinical and Laboratory Standards Institute (CLSI) guidelines and European Committee on Antimicrobial Susceptibility Testing (EUCAST) recommendations. Bacterial suspension of specific bacterial strain equivalent to 0.5 McFarland turbidity standard was diluted with cation-adjusted Mueller Hinton broth with TES (Thermo Fisher Diagnostic, Landsmeer, The Netherlands), to obtain a final inoculum of 10^5 CFU/mL. Compounds dissolved in DMSO and inoculum were mixed together and incubated for 18–20 h at 35 °C. Suspensions of Mycobacterium sp. were prepared into a tube of Middelbrook 7H9 broth supplemented with 5% OADC (Thermo Scientific, Trek Diagnostic Systems, West Sussex, UK) and incubated for at least 10 days. After incubation the minimal inhibitory concentration (MIC) values were determined by visual inspection as the lowest dilution of compounds showing no turbidity. Tetracycline was used as a positive control on every assay plate.

MRSA = test: MIC broth microdilution, MRSA; assay type: cell-based, methicillin-resistant S. aureus; conditions: Staphylococcus aureus, read-out: MIC MRSA
Protocol: as §2

MRSA (QA-11.7) = test: MIC broth microdilution, MRSA QA-11.7; assay type: cell-based, methicillin-resistant S. aureus; conditions: Staphylococcus aureus, 20 h, read-out: MIC MRSA (QA-11.7)
Protocol: as §2

MRSA (QA-11.4) = test: MIC broth microdilution, MRSA QA-11.4; assay type: cell-based, methicillin-resistant S. aureus; conditions: Staphylococcus aureus, 20 h, read-out: MIC MRSA (QA-11.4)
Protocol: as §2

[1] = test system: E. faecalis DRK 057 (ATCC 29212); test: MIC broth microdilution, E. faecalis; assay type: cell-based; conditions: Enterococcus faecalis, ATCC29212; read-out: MIC E. faecalis DRK 057 (ATCC 29212)
Protocol: as §2

S. pneumoniae (QA-10/02) = test: MIC broth microdilution, S. pneumoniae; assay type: cell-based; conditions: Streptococcus pneumoniae
Protocol: as §2

E. coli (ATCC 25922) = test: MIC broth microdilution, E. coli ATCC 25922; assay type: cell-based; conditions: Escherichia coli, ATCC25922
Protocol: as §2

E. coli (QA-11.7) = test: MIC broth microdilution, E. coli QA-11.7; assay type: cell-based; conditions: Escherichia coli, 20 h; multi-resistant isolate (ampicillin, azithromycin, cefotaxime, ertapenem, imipenem and others); read-out: MIC E. coli (QA-11.7)
Protocol: as §2

E. coli (QA-11.3) = test: MIC broth microdilution, E. coli QA-11.3; assay type: cell-based; conditions: Escherichia coli, 20 h; read-out: MIC E. coli (QA-11.3)
Protocol: as §2

E. coli D22 = test: MIC broth microdilution, E. coli D22; assay type: cell-based; conditions: Escherichia coli
Protocol: as §2

[2] = test system: A. baumannii 8C6 (GES-14); test: MIC broth microdilution, A. baumannii; assay type: cell-based; conditions: Acinetobacter baumannii; read-out: MIC A. baumannii 8C6 (GES-14)
Protocol: as §2

[3] = test system: P. aeruginosa RDK 184 (DSM 939); test: MIC broth microdilution, P. aeruginosa; assay type: cell-based; conditions: Pseudomonas aeruginosa, DSM939; read-out: MIC P. aeruginosa RDK 184 (DSM 939)
Protocol: as §2

[4] = test system: C. jejuni RDK 135 (ATCC 33560); test: MIC broth microdilution, C. jejuni; assay type: cell-based; conditions: Campylobacter jejuni, ATCC33560; read-out: MIC C. jejuni RDK 135 (ATCC 33560)
Protocol: as §2

M. smegmatis = test: MIC, M. smegmatis; assay type: cell-based, Mycobacterium smegmatis
Protocol: as §2

S. aureus Topo IV = target: T3, S. aureus Topo IV (Staphylococcus aureus, UniProt Q2FYS4); test: biochemical; conditions: mean of two to four measurements; read-out: Topoisomerase IV IC50 S. aureus
T3 construct: purchased Inspiralis (Norwich, UK)
Protocol: as §1

[5] = mean of two to four measurements, read-out: Topoisomerase IV IC50 E. coli
[6] = Staphylococcus aureus, ATCC29213; S. aureus ATCC 29213; read-out: S. aureus MIC (converted)
[7] = E. coli ATCC 25922, read-out: E. coli MIC (converted)
[8] = read-out: MIC E. coli (ATCC 25922)
[9] = D22, mutation in the lpxC gene that increases membrane permeability, read-out: MIC E. coli D22
[10] = Mycolicibacterium smegmatis; read-out: MIC M. smegmatis
[11] = Staphylococcus aureus, ATCC29213; read-out: MIC S. aureus (ATCC 29213)

T2 sequence (P11388 whole entry): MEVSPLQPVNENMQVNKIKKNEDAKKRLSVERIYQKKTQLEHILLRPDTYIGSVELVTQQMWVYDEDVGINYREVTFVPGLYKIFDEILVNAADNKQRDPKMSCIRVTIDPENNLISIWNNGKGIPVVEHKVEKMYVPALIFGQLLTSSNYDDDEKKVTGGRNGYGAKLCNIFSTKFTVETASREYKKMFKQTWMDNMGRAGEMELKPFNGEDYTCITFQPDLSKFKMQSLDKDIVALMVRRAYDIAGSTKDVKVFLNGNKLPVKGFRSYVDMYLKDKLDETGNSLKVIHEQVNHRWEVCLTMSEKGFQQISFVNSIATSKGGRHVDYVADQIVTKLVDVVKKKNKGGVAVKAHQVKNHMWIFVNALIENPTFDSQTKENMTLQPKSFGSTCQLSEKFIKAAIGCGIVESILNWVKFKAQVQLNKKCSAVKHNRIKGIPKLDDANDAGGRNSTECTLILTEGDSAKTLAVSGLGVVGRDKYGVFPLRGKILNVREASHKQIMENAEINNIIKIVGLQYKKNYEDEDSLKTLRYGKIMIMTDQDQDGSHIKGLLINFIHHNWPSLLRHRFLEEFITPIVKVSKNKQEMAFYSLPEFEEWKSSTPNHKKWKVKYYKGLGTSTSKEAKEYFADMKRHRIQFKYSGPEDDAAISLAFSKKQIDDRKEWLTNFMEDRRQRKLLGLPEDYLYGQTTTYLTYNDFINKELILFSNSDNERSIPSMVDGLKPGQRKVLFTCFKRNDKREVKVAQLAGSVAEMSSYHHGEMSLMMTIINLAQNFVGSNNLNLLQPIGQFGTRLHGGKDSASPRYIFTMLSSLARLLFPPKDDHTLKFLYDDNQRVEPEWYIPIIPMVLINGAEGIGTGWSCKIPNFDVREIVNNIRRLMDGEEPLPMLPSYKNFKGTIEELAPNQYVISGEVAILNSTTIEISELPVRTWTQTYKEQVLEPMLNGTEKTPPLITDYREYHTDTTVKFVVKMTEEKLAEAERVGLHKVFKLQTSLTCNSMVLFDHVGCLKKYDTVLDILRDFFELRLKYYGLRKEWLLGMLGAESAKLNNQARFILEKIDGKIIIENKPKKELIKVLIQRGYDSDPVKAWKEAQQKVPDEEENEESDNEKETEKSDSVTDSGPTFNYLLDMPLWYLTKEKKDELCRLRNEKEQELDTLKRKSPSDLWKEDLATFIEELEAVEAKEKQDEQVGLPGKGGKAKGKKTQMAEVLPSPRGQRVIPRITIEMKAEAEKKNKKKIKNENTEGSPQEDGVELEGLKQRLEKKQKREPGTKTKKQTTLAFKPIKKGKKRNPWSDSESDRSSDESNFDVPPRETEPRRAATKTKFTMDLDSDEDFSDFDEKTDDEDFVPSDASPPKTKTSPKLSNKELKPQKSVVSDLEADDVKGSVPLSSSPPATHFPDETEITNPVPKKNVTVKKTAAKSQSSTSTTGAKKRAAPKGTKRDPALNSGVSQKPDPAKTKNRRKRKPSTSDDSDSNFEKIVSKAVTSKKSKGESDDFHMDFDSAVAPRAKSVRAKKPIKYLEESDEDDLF
T1 sequence (P0AFI2 whole entry): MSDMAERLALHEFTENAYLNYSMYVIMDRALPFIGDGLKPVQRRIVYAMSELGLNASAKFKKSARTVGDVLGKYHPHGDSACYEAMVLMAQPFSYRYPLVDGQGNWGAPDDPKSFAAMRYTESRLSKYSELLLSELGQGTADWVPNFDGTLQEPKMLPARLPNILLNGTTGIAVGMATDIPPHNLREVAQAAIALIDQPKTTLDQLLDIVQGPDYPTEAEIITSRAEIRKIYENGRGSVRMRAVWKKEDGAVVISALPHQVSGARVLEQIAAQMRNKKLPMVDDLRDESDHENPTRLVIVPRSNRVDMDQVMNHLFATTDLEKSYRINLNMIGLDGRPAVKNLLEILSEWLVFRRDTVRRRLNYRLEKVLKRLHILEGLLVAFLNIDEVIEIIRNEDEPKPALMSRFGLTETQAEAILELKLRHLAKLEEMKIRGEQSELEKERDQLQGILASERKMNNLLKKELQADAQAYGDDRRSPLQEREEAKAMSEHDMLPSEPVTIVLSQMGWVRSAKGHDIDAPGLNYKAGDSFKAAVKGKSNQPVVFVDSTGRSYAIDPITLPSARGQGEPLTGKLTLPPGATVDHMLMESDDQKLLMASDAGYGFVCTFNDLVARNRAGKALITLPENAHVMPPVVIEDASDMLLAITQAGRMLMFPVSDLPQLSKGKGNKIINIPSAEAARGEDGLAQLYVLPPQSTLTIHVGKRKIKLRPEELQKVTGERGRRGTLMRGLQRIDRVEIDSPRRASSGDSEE
T1 sequence (P20083 whole entry, further chain): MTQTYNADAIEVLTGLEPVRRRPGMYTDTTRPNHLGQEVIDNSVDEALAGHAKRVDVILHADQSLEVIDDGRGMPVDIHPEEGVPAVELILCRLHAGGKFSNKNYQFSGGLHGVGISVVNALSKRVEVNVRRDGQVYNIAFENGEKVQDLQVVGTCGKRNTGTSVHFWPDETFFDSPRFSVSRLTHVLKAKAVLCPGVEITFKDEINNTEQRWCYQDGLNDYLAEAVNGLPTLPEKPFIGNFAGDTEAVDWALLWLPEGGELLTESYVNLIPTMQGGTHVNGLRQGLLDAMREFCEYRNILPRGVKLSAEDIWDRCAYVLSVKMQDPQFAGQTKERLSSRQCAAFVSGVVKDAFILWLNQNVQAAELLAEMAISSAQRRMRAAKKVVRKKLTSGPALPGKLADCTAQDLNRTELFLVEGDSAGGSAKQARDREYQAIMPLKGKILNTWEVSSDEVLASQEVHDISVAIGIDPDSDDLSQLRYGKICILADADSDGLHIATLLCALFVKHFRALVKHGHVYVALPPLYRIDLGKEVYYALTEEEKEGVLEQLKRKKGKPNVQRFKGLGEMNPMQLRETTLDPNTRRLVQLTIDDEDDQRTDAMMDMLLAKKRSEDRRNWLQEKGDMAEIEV
T3 sequence (Q2FYS5 whole entry): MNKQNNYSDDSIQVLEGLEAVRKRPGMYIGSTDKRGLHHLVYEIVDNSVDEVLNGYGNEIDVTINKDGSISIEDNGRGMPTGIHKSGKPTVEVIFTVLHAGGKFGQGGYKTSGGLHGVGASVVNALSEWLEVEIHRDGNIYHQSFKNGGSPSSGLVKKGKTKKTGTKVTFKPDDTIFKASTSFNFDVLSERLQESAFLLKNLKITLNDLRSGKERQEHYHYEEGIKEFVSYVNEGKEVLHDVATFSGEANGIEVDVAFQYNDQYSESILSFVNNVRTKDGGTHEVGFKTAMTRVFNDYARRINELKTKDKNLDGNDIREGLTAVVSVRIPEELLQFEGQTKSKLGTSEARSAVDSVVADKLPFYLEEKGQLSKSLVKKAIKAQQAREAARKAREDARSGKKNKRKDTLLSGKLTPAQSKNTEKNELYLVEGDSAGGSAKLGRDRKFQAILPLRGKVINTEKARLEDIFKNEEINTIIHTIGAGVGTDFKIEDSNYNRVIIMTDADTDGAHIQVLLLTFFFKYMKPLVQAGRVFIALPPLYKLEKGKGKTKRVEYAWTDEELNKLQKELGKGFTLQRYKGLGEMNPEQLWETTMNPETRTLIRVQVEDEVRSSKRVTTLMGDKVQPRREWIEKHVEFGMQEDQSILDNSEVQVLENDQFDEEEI
T3 sequence (Q2FYS4 whole entry): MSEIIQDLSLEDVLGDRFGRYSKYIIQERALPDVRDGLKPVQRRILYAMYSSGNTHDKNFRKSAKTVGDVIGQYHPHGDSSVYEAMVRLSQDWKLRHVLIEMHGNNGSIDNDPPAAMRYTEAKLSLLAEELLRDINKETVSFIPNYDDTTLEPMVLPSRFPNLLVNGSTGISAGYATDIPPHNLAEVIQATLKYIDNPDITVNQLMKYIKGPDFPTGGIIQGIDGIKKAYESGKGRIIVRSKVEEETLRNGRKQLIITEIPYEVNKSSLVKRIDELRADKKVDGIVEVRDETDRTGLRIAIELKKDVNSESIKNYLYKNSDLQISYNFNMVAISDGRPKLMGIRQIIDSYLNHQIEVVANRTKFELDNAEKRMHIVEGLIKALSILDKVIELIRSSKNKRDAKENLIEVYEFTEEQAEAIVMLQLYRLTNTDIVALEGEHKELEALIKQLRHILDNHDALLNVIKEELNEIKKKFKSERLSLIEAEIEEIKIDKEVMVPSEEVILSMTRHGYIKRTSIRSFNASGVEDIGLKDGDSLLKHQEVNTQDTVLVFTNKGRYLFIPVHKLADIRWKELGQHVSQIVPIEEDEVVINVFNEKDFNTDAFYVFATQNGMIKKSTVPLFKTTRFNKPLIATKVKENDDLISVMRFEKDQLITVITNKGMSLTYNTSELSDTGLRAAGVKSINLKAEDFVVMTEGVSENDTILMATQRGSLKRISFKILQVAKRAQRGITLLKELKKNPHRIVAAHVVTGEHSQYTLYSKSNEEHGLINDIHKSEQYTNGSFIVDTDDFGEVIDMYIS

## COc1ccc2nccc(CCN3CCC(NCc4ccc(Cl)cc4)CC3)c2n1 [Compound 13]
E. coli Topo IV; [5]
  IC50: 31 nM
Human topoisomerase IIα
  remaining activity at 10 µM: 102 ± 0.84%
S. aureus (ATCC 29213); Staphylococcus aureus, ATCC29213, read-out: MIC S. aureus (ATCC 29213)
  MIC: 0.125 µg/mL
S. aureus (ATCC 29213); [6]
  MIC: 0.3 µM
MRSA
  MIC: 0.25 µg/mL (≈ 0.608 µM)
MRSA (QA-11.7)
  MIC: 0.5 µg/mL (≈ 1.22 µM)
MRSA (QA-11.4); resistant to cefoxitin
  MIC: 0.5 µg/mL (≈ 1.22 µM)
[1]
  MIC: 1 µg/mL (≈ 2.43 µM)
S. pneumoniae (QA-10/02)
  MIC: 0.5 µg/mL (≈ 1.22 µM)
E. coli (ATCC 25922); [7]
  MIC: 9.73 µM
E. coli (ATCC 25922); [8]
  MIC: 4 µg/mL
E. coli (QA-11.7)
  MIC: 1 µg/mL (≈ 2.43 µM)
E. coli (QA-11.3)
  MIC: 2 µg/mL (≈ 4.87 µM)
E. coli D22; [9]
  MIC: 2 µg/mL (≈ 4.87 µM)
[2]
  MIC: 4 µg/mL (≈ 9.73 µM)
[3]
  MIC: > 128 µg/mL
[4]
  MIC: 2 µg/mL (≈ 4.87 µM)
M. smegmatis; [10]
  MIC: 0.25 µg/mL (≈ 0.608 µM)

## COc1ccc2nccc(CCN3CCC(NCc4ccc(Br)cc4)CC3)c2n1 [Compound 14]
E. coli Topo IV; [5]
  IC50: 42 ± 3 nM
Human topoisomerase IIα
  remaining activity at 10 µM: 98.2 ± 2.72%
S. aureus (ATCC 29213); [6]
  MIC: 0.07 µM
S. aureus (ATCC 29213); [11]
  MIC: 0.031 µg/mL
MRSA
  MIC: 0.062 µg/mL (≈ 0.136 µM)
MRSA (QA-11.7)
  MIC: 0.0625 µg/mL (≈ 0.137 µM)
MRSA (QA-11.4)
  MIC: 0.125 µg/mL (≈ 0.274 µM)
[1]
  MIC: 1 µg/mL (≈ 2.2 µM)
S. pneumoniae (QA-10/02)
  MIC: 0.125 µg/mL (≈ 0.274 µM)
E. coli (ATCC 25922); [7]
  MIC: 4.39 µM
E. coli (ATCC 25922); [8]
  MIC: 2 µg/mL
E. coli (QA-11.7)
  MIC: 1 µg/mL (≈ 2.2 µM)
E. coli (QA-11.3)
  MIC: 1 µg/mL (≈ 2.2 µM)
E. coli D22; D22, read-out: MIC E. coli D22
  MIC: 0.125 µg/mL (≈ 0.274 µM)
[2]
  MIC: 1 µg/mL (≈ 2.2 µM)
[3]
  MIC: 128 µg/mL (≈ 281 µM)
[4]
  MIC: 0.5 µg/mL (≈ 1.1 µM)
M. smegmatis; Mycolicibacterium smegmatis, read-out: MIC M. smegmatis
  MIC: 0.125 µg/mL (≈ 0.274 µM)

## COc1ccc2nccc(CCN3CCC(NCc4ccc(I)cc4)CC3)c2n1 [Compound 15]
E. coli Topo IV; [5]
  IC50: 21 ± 1 nM
Human topoisomerase IIα
  remaining activity at 10 µM: 88.3 ± 3.33%
S. aureus (ATCC 29213); S. aureus ATCC 29213
  S. aureus MIC in molar: 0.016 µM
S. aureus (ATCC 29213); Staphylococcus aureus, ATCC29213, 20 h; S. aureus ATCC 29213; read-out: S. aureus MIC (converted)
  MIC: 0.01 µM
S. aureus (ATCC 29213); [11]
  MIC: 0.0078 µg/mL
MRSA
  MIC: 0.0078 µg/mL (≈ 0.0155 µM)
MRSA (QA-11.7)
  MIC: 0.0078 µg/mL (≈ 0.0155 µM)
MRSA (QA-11.4); resistant to cefoxitin
  MIC: 0.0625 µg/mL (≈ 0.124 µM)
[1]
  MIC: 1 µg/mL (≈ 1.99 µM)
S. pneumoniae (QA-10/02)
  MIC: 0.015 µg/mL (≈ 0.0299 µM)
E. coli (ATCC 25922); [7]
  MIC: 3.98 µM
E. coli (ATCC 25922); range over E. coli strains, read-out: MIC E. coli
  MIC: 0.25 to 2 µg/mL
E. coli (ATCC 25922); [8]
  MIC: 2 µg/mL
E. coli (QA-11.7)
  MIC: 1 µg/mL (≈ 1.99 µM)
E. coli (QA-11.3)
  MIC: 1 µg/mL (≈ 1.99 µM)
E. coli D22; D22, read-out: MIC E. coli D22
  MIC: 0.125 µg/mL (≈ 0.249 µM)
[2]
  MIC: 0.25 µg/mL (≈ 0.498 µM)
[3]
  MIC: 32 µg/mL (≈ 63.7 µM)
[4]
  MIC: 0.015 µg/mL (≈ 0.0299 µM)
M. smegmatis; [10]
  MIC: 0.015 µg/mL (≈ 0.0299 µM)

## COc1ccc2nccc(CCN3CCC(NCc4ccc(N(C)C)cc4)CC3)c2n1 [Compound 18]
S. aureus Topo IV
  IC50: > 100000 nM
E. coli Topo IV
  IC50: > 100000 nM
Human topoisomerase IIα
  remaining activity at 10 µM: 94.2 ± 1.33%
S. aureus (ATCC 29213); [6]
  MIC: 0.31 µM
MRSA (QA-11.7)
  MIC: 0.5 µg/mL (≈ 1.19 µM)
MRSA (QA-11.4); resistant to cefoxitin
  MIC: 0.5 µg/mL (≈ 1.19 µM)
[1]
  MIC: 1 µg/mL (≈ 2.38 µM)
S. pneumoniae (QA-10/02)
  MIC: 0.25 µg/mL (≈ 0.596 µM)
E. coli (ATCC 25922); [7]
  MIC: 78.5 µM
E. coli (ATCC 25922); [8]
  MIC: 32 µg/mL
E. coli (QA-11.7)
  MIC: 4 µg/mL (≈ 9.53 µM)
E. coli (QA-11.3)
  MIC: 8 µg/mL (≈ 19.1 µM)
E. coli D22; [9]
  MIC: 8 µg/mL (≈ 19.1 µM)
[2]
  MIC: 8 µg/mL (≈ 19.1 µM)
[3]
  MIC: > 128 µg/mL
[4]
  MIC: 4 µg/mL (≈ 9.53 µM)
M. smegmatis; [10]
  MIC: 4 µg/mL (≈ 9.53 µM)
